The values that follow come from PMC9043270, “β-Blockers bearing hydroxyethylamine and hydroxyethylene as potential SARS-CoV-2 Mpro inhibitors: rational based design, in silico, in vitro, and SAR studies for lead optimization” (RSC Advances, 2021).

The assay deals with T1, SARS-CoV-2 Mpro (3CL protease) (Severe acute respiratory syndrome coronavirus 2, UniProt P0DTD1).
T1 construct: gene rep
Description: fluorogenic substrate 3CL protease assay kit. The assay is classed as biochemical. The following applies: read-out: IC50 (μg ml^-1) (converted). The source says:
fluorogenic substrate 3CL protease assay kit on SARS-CoV-2 Mpro (3CL protease)

One may read the IC50 as the concentration that gives 50% inhibition. With `Cc1cccc(C)c1OCC(=O)N[C@@H](Cc1ccccc1)[C@@H](O)C[C@H](Cc1ccccc1)NC(=O)[C@H](C(C)C)N1CCCNC1=O` [Lopinavir], the IC50 was 117 µM.
In the case of `CC(C)NCC(O)COc1ccc(COCCOC(C)C)cc1` (stereo not shown) [compound 8, Bisoprolol], the IC50 is 364 µM.
To `COc1ccccc1OCCNCC(O)COc1cccc2[nH]c3ccccc3c12` (stereo not shown) [compound 17, Carvedilol] belongs 503 µM; to `OC(CNCC(O)C1CCc2cc(F)ccc2O1)C1CCc2cc(F)ccc2O1` (stereo not shown) [compound 20, Nebivolol], 148 µM.
